Earlier results as cited in paper PMC4907212, “Mucosal and blood-brain barrier transport kinetics of the plant N-alkylamide spilanthol using in vitro and in vivo models” (BMC Complementary and Alternative Medicine, 2016).

Parameters: method as in PMID 19399718
Settings: plasma, oral gavage in rats; cited from earlier work

dodeca-2E,4E,8E,10E/Z-tetraenoic acid isobutylamides
elimination half-life: 72 min
